PubChem BioAssay (NCI)
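Protocol summary: plate cells (96-well), add compound at 5 concentrations, incubate 48 h, interpolate endpoints linearly. The concentration for full growth arrest is given as TGI.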 Where a SMILES comes first, the peptide text is derived from it. [ ]: non-standard residue; d: D form. The star is where a group is joined. ξ: configuration not given here. NMeF = CN[CH](Cc1ccccc1)C(=O)O; ξNMe2Val = CC(C)C(C(=O)*)N(C)C; NMeV = CN[CH](C(=O)O)C(C)C; ξNMeV = CNC(C(=O)O)C(C)C; Boc = CC(C)(C)OC(=O)*; OBn = c1ccc(CO*)cc1; OtBu = CC(C)(C)O*

Key:
Test in all cases: NCI-60 cell line screen, 48 h
[1] = system: IGROV1 ovarian
[2] = system: K-562 leukemia
[3] = system: MALME-3M melanoma
[4] = system: OVCAR-4 ovarian
[5] = system: OVCAR-5 ovarian
[6] = system: RPMI-8226 leukemia
[7] = system: SK-OV-3 ovarian
[8] = system: TK-10 renal
[9] = system: U251 CNS
[10] = system: UO-31 renal

SMILES | TGI [1] [µM] | TGI [2] [µM] | TGI [3] [µM] | TGI [4] [µM] | TGI [5] [µM] | TGI [6] [µM] | TGI [7] [µM] | TGI [8] [µM] | TGI [9] [µM] | TGI [10] [µM]
CC(C)C(C(=O)N(C)[C@H](C(=O)N1CCC[C@H]1C(=O)N(C)[C@@H](Cc1ccccc1)C(=O)OCc1ccccc1)C(C)C)N(C)C(=O)[C@@H](NC(=O)OC(C)(C)C)C(C)C (stereo partly specified) (Boc-V[ξNMeV][NMeV]P[NMeF]-OBn) | > 31.6 | 12.6 | > 100 | > 100 | > 31.6 | > 31.6 | > 31.6 | > 31.6 | > 31.6 | > 31.6
O=c1[nH]c(=O)n(C2CC(O)C(CO)O2)cc1Br (stereo unspecified) | > 100 | > 100 | > 100 | > 100 | > 100 | > 100 | > 100 | > 100 | > 100 | > 100
CCOC(=O)c1cc(C)nc2c1c(=O)n(-c1ccccc1)c(=O)n2CCCCN1CCN(c2ncccn2)CC1 | > 100 | > 100 | > 100 |  | > 100 | > 100 | > 100 | > 100 | > 100 | > 100
CCSc1nc(N/N=C/c2cccs2)c2cnn(CO)c2n1 | 10.7 | 52.7 | 26.9 | > 100 | 27 |  | 29.4 | 21.9 | 30.1 | 10.2
O=C(NC1C/C(=N/O)c2c(Br)sc(Br)c21)C(F)(F)F (stereo unspecified) | > 100 | 38.4 | > 100 | 43.7 | > 100 |  | > 100 | > 100 | 39.2 | 98.5
O=C1Nc2ccc(Br)cc2/C1=N/N1C(=O)C(=O)N(C2CCCCC2)C1=S |  | 12.6 | 22.3 | 22.6 | 28.9 | 19.9 | 21.9 | 35 | 15.9 | 4.79
O=C1Nc2ccc(Cl)c(I)c2C1=O | 30.9 | 65.5 | 34.8 | 32 | 34.1 |  | 34.6 | > 100 | 31.2 | 38.8
COc1cc(/C=C/C(=N\NC(N)=S)c2sc(NNC(C)=O)nc2C)ccc1O | > 100 | > 100 | > 100 | > 100 | > 100 | > 100 | > 100 | > 100 | > 100 | > 100
O=C(O)c1nn(-c2ccccc2)nc1-c1nn(-c2ccccc2)nc1C(=O)O | > 100 | > 100 | > 100 | > 100 | > 100 | > 100 | > 100 | > 100 | > 100 | > 100
CC(=O)OCC1OC(N=[N+]=[N-])C(OC(C)=O)C(OC(C)=O)C1OC1OC(COC(C)=O)C(OC(C)=O)C(OC(C)=O)C1OC(C)=O (stereo unspecified) | > 100 | > 100 | > 100 | > 100 | > 100 | > 100 | > 100 | > 100 | > 100 | > 100
CCOC(=O)NN(C(=O)OCC)C(C(=O)c1ccccc1)N(NC(=O)OCC)C(=O)OCC | > 100 | > 100 | > 100 | > 100 | > 100 | > 100 | > 100 | > 100 | > 100 | > 100
C(=N\NC1=NCCN1)/c1ccc2ccccc2c1 | 24.6 | 32.6 | 28.3 | 54.3 | 44 | 49.4 | 34.1 | 26.4 | 29.8 | 19.9
Cc1[nH]c2nccn2c(=O)c1CCO | > 10 | > 10 | > 10 | > 10 | > 10 | > 10 | > 10 | > 10 | > 10 | > 10
C/C(=N\NC(N)=S)c1nc2ncccc2[nH]1 | > 100 | > 100 | > 100 | > 100 | > 100 | > 100 | > 100 | > 100 | > 100 | 82.1
CN1C(=O)C23CCCC2CC1(c1ccccc1)S3 (stereo unspecified) | > 100 | > 100 | > 100 | > 100 | > 100 | > 100 | > 100 | > 100 | > 100 | > 100
COc1ccc(Nc2nc(N)c(C(=O)c3ccc(Cl)cc3)s2)cc1 | 17.7 | > 100 |  | 2.65 | 34.7 | < 0.01 | 20.4 | > 46.3 | 4.58 | 16
CSC(C1c2ccccc2N(C)c2[nH]c(=O)n(C)c(=O)c21)S(=O)(=O)c1ccc(C)cc1 (stereo unspecified) | > 100 | > 100 | > 100 | > 100 | > 100 |  | > 100 | > 100 | > 100 | > 100
Fc1ccc(C(OCCN2CCC3CCC(C2)N3C/C=C/c2cccs2)c2ccc(F)cc2)cc1 (stereo unspecified) | 21.6 |  | 18.9 | 22.5 | 25.9 | 1.78 | 26.3 | 24.3 | 18.8 | 24.3
Brc1ccc(-c2cc3c(cc2C2SCCS2)OCO3)cc1 | > 100 | > 100 | > 100 | > 100 | > 100 |  | > 100 | > 100 | > 100 | 90.4
CSc1ncc2c(n1)-c1ccccc1OC2 | > 100 |  |  | > 100 | > 100 | > 100 | > 100 | > 100 | > 100 | > 100
CC(C)C(C(=O)N(C)C(Cc1ccccc1)C(=O)N(C)C(C(=O)N(C)C(C(=O)N1CCCC1C(=O)OC(C)(C)C)C(C)C)C(C)C)N(C)C (stereo unspecified) (ξNMe2Val-[NMeF][NMeV][NMeV]P-OtBu; configuration not given here) | > 100 | > 100 |  |  |  | > 100 |  | > 100 |  | > 100
CCCCCCCCCCCCOC1C(COCCN2CCCCC2)OC2OC(C)(C)OC21 (stereo unspecified) | 3.26 |  | 3.28 |  | 4.23 |  | 15.9 | 3.55 | 3.48 | 3.22
